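96-well plates; 48 h exposure; 5 concentrations. Endpoints by linear interpolation between flanking doses. Not reached: highest tested concentration assigned. GI50 marks 50% less growth.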 Calls of active or inactive are those of the source. No stated cut-off is given here; in the data, active = GI50 up to about 1.1 µM and inactive = higher.
Key:
Test in all cases: inhibition of tumour cell growth, NCI panel, 48 h
[1] = tested on: A498
[2] = tested on: TK-10
[3] = tested on: NCI-H522
[4] = tested on: HT-29
[5] = tested on: Malme-3M
[6] = tested on: HOP-62
[7] = tested on: HL-60
[8] = tested on: COLO 205
[9] = tested on: A549
[10] = tested on: NCI-H460
[11] = tested on: UACC-62
[12] = tested on: RPMI-8226
[13] = tested on: SK-OV-3
[14] = tested on: 786-0
[15] = tested on: HOP-92
[16] = tested on: SK-MEL-5
[17] = tested on: IGROV-1
[18] = tested on: SF-268
[19] = tested on: PC-3

Measured: GI50

CN(C)CCONC(=O)C12CC3CC(CC(C3)C1)C2
inactive: [1] > 100 µM | [2] > 100 µM | [3] > 100 µM | [4] > 100 µM | [6] > 100 µM | [7] > 100 µM | [8] > 100 µM | [9] > 100 µM | [10] > 100 µM | [11] > 100 µM | [12] > 100 µM | [13] > 100 µM | [14] > 100 µM | [15] > 100 µM | [16] > 100 µM | [17] > 100 µM | [18] > 100 µM
active: [5] 0.02 µM

CCCCCC(=O)N[C@H]1CCc2cc(OC)c(OC)c(OC)c2-c2ccc(SC)c(=O)cc21
active: [1] 0.0172 µM | [2] 0.521 µM | [4] 0.0233 µM | [5] 0.0106 µM | [6] 0.032 µM | [7] < 0.01 µM | [8] 0.0122 µM | [9] 0.0306 µM | [10] < 0.01 µM | [11] 0.0204 µM | [12] 0.0181 µM | [13] 0.0224 µM | [14] 0.0335 µM | [15] < 0.01 µM | [16] 0.014 µM | [17] 0.0241 µM | [18] 0.0212 µM

CCOc1ccc(NCc2cc(OC)c(OC)c(OC)c2)cc1
inactive: [19] 1.96 µM | [9] 1.68 µM | [12] 1.58 µM | [13] 1.17 µM | [14] 1.32 µM | [15] 6.04 µM | [17] 2.4 µM | [18] 3.4 µM
active: [3] 0.452 µM | [4] 0.407 µM | [6] 0.675 µM | [7] 0.463 µM | [8] 0.495 µM | [10] 0.614 µM | [11] 0.481 µM | [16] 0.578 µM

COC(=O)CCC(NC(=S)N/N=C(\C)c1ccccn1)C(=O)OC (centres undefined)
inactive: [1] > 100 µM | [2] > 100 µM | [3] 33.3 µM | [4] > 100 µM | [5] 45.4 µM | [6] 57.3 µM | [7] 18.5 µM | [8] 30 µM | [9] 66.8 µM | [10] 65.8 µM | [11] 34.8 µM | [12] 44.4 µM | [13] > 100 µM | [14] 65.8 µM | [15] 41.7 µM | [16] 40.5 µM | [17] 82.8 µM | [18] 52.1 µM

CC(C)(C)[Si](C)(C)OCC1OC(n2ccc(=O)[nH]c2=O)C(O[Si](C)(C)C(C)(C)C)[C@@]12O[C@H]2C(N)=O (some centres undefined)
inactive: [1] > 10 µM | [2] 20.2 µM | [19] 5.61 µM | [3] 2.22 µM | [4] 3.39 µM | [6] 13.8 µM | [7] 96.6 µM | [8] 7.64 µM | [9] 5.75 µM | [10] 5.28 µM | [11] 18.7 µM | [12] 6.17 µM | [13] 19 µM | [14] 5.11 µM | [15] > 10 µM | [16] 4.06 µM | [17] 2.86 µM | [18] 9.2 µM

O=C(COc1ccc(OCC(=O)N2C(=O)CS/C2=N\c2ccccc2)cc1)N1C(=O)CS/C1=N\c1ccccc1
inactive: [1] 60 µM | [2] 56.9 µM | [19] 14.8 µM | [3] 11.1 µM | [4] 14.4 µM | [5] 4 µM | [8] 20.5 µM | [9] 23.6 µM | [10] 29 µM | [11] 8.13 µM | [12] 22.5 µM | [13] 48.5 µM | [14] 19.2 µM | [15] 26.2 µM | [16] 11.6 µM | [17] 2.38 µM | [18] 27.5 µM

COc1c2c(c(OC)c3c(=O)cc(C/C(=N/NC(=O)C[n+]4ccccc4)C(=O)Nc4cc(C)ccc4C)oc13)OCO2
inactive: [1] > 100 µM | [2] > 100 µM | [3] > 100 µM | [4] > 100 µM | [5] > 100 µM | [6] > 100 µM | [7] > 100 µM | [8] > 100 µM | [9] > 100 µM | [10] > 100 µM | [11] > 100 µM | [12] > 100 µM | [13] > 100 µM | [14] > 100 µM | [15] > 100 µM | [16] > 100 µM | [17] > 100 µM | [18] > 100 µM

C=CCO[C@H]1CC[C@@]2(C)C(CC[C@]3(C)C2CC=C2[C@@H]4[C@@H](C)C(C)CC[C@]4(C(=O)O)CCC23C)C1(C)C (some centres undefined)
inactive: [1] 17.3 µM | [2] 18.2 µM | [3] 13.2 µM | [4] 16.3 µM | [5] 19.5 µM | [6] 22.1 µM | [7] 7.01 µM | [8] 16 µM | [9] 16.4 µM | [10] 17.5 µM | [11] 14.4 µM | [13] 16.9 µM | [14] 15.7 µM | [15] 16.3 µM | [16] 16.5 µM | [17] 16.6 µM | [18] 19.2 µM
